Experimental data reported in patent publication US20170304288A1, “Formulations of Methionine Aminopeptidase Inhibitors for Treating Infectious Diseases” (Texas Southern University, priority 2013, published 2017).
In brackets after ≈: the same amount, converted by molar mass. Read-outs that look alike come from different tables or passages of the source.

How the values were obtained:
[1] = molecular target: T1, EfMetAP1 (Enterococcus faecalis, UniProt Q832M5); experiment: EfMetAP1 inhibition, coupled methionine-proline aminopeptidase assay; format: biochemical, E. faecalis
T1 sequence (Q832M5 1-254): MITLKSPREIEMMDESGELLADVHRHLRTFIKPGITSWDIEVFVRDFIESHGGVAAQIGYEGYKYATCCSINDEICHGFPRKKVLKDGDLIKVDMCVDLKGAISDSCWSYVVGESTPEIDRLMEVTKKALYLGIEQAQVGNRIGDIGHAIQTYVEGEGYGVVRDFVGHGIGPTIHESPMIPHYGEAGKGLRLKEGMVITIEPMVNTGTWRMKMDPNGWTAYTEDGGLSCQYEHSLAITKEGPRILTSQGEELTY
Experimental: 175,000 compounds were screened against EfMetAP1, using the coupled methionine-proline aminopeptidase spectrophotometric assay (FIG. 7A). The primary screen was performed at final concentrations of 30 μM in 384-well plates using a titertek instrument with liquid handling capabilities coupled to a spectrophotometer. The compounds were dissolved in dimethylsulfoxide (DMSO) and the total reaction volume was 50 μL where each reaction contained 40 mM Hepes buffer (pH 7.5), 100 mM NaCl, 100 μg/mL BSA, 0.1 U/mL ProAP, 1.5 mM CoCl2, 600 μM substrate (Met-Pro-pNA), and 1.38 μM EfMetAP1. The Enzyme was pre-incubated with compounds for 20 min at room temperature followed by addition of substrate. The reaction was incubated at room temperature for 30 min and monitored at 405 nm on a spectrophotometer. […] The background hydrolysis was corrected and the data was fitted against the sigmoidal-dose response (variable slope) equation using GraphPad prism software.

[2] = molecular target: HsMetAP1 (Homo sapiens, UniProt P53582); experiment: MetAP enzyme inhibition IC50; format: biochemical
Experimental: (§1) The enzyme was pre-incubated with compounds for 20 minutes at room temperature followed by addition of substrate. The reaction was incubated at room temperature for 30 min and monitored at 405 nm on a spectrophotometer. The background hydrolysis was subtracted and the data was fitted to a four-parameter logistic (variable slope) equation using GraphPad Prism software.

[3] = molecular target: HsMetAP2 (Homo sapiens, UniProt P50579); experiment: MetAP enzyme inhibition IC50; format: biochemical
Sequence of HsMetAP2 (P50579 whole entry): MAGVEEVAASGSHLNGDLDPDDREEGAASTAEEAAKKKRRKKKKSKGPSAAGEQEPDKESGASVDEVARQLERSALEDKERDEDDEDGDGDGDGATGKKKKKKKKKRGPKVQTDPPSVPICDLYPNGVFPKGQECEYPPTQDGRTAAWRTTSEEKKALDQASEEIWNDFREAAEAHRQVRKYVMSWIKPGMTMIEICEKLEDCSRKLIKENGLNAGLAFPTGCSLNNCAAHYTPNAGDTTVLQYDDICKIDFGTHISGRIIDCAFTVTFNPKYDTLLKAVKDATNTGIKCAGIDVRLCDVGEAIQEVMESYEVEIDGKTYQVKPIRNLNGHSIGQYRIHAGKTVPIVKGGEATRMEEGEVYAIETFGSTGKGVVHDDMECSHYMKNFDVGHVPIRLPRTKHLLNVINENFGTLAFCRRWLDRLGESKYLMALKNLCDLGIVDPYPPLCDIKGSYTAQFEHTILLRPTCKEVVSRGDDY
Experimental: as §1

[4] = test system: HIV-1 (89.6 strain); experiment: microbe, parasite or virus in culture; format: cell-based; settings: for inhibition of HIV-1 p24 antigen production: HIV-1 infected PBMC, ELISA; for inhibitory concentration equivalent to negative control (blank): p24 ELISA; for IC50: Human immunodeficiency virus 1, PBMC, read-out: concentration required for 50% inhibition of HIV1 p24 produced, primary screen, preliminary
[5] = test system: M. tuberculosis CDC 1551; experiment: Minimum Inhibitory Concentration in replicating M. tuberculosis; format: cell-based, Mycobacterium tuberculosis; settings: replicating culture; for MIC: Mycobacterium tuberculosis, CDC1551, read-out: Minimum Inhibitory Concentration Wild-type M. tuberculosis Strain CDC1551
[6] = test system: M. tuberculosis H37Ra; experiment: Activity against dormant (aged non-growing) M. tuberculosis, XTT; format: cell-based, Mycobacterium tuberculosis; settings: for MIC: Mycobacterium tuberculosis, H37RA, read-out: MIC dormant M. tuberculosis Strain H37Ra
Experimental: The activity of the compounds in aged non-growing M. tuberculosis was achieved using a perister model at concentrations […] and monitored for three weeks. Briefly, 2 month old M. tuberculosis H37Ra culture was grown in 7H9 medium (Difco) with 10% albumin dextrose catalase (ADC) and 0.05% Tween 80. […] The compound was diluted from a 10 mM (in DMSO) to 10 μM (final concentration) and incubated with the bacilli in […] 7H9 medium (pH 5.5) without ADC in a 96-well plate for three days without shanking under 1% oxygen in a hypoxic chamber. This assay was performed in duplicates with Rifampin (5 mg/mL). Following a 3 day drug exposure, bacilli viability was determined by adding […] of 1 mg/mL of XTT (2,3-bis-(2-methoxy-4-nitro-5-sulfophenyl)-2H-tetrazolium-5-carboxanilide) and incubated at 37° C. for up to 7 days. The 96 well plates were then read at OD 485 nm.

[7] = test system: L. major promastigotes over-expressing LmMetAP1; experiment: Leishmania major luciferase assay, promastigotes over-expressing LmMetAP1; format: cell-based; settings: read-out: L. major promastigotes over-expressing LmMetAP1 EC50
Experimental: (§2) Compounds were screened against L. major strain friedlin clone V1 promastigotes expressing firefly luciferase at concentrations ranging from 100 μM-780 nM in a 96 well plate. These experiments were done in triplicates using L. major media and 10^6 parasites per well. The plates were incubated for 24, 48, 72 and 96 hours at 28° C. Amphotericin B (AB) was used as a positive control at 5 μM as a comparison to the leishmanicidal activity of the inhibitors. The inhibitory effects of the compounds were assessed by monitoring parasite survival through luciferase activity. The substrate 5′-fluoroluciferin (ONE-Glo Luciferase Assay System, Promega, Madison, Wis.) was added according to the manufacturer's protocol after each time point. The plates were read using a luminometer (Luminoskan, Thermo Scientific, Rockford, Ill.). Data was analyzed using GraphPad Prism Software (GraphPad Software, Inc., La Jolla, Calif.).
LmMetAP1 was cloned in the Leishmania expression vector pXG, and parasites were transfected. The parasites overexpressing LmMetAP1 were selected for and cloned.

[8] = molecular target: T2, LmMetAP1 (Leishmania major, UniProt Q4QDG7); experiment: LmMetAP1 enzyme inhibition (l-Met-pNA); format: biochemical
T2 sequence (Q4QDG7 1-401): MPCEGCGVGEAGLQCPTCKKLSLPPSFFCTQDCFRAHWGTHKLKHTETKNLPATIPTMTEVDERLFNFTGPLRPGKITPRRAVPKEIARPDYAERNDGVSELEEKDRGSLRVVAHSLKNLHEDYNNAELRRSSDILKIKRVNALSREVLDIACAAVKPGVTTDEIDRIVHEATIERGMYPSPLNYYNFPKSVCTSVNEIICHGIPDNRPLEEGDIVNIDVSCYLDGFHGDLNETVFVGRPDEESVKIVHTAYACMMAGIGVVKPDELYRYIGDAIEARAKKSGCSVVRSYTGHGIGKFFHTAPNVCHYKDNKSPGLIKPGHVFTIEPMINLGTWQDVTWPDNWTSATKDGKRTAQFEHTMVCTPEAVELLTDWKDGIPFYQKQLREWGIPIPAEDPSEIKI
Description: After cloning, overexpressing and purifying the protein to near homogeneity, the chromogenic substrate I-methionine-p-nitroanalide (I-Met-pNA) (Sigma) was used to determine inhibition of the enzyme using various compounds (Mitra et al. 2006).

[9] = test system: HIV-1 transcription; settings: Debebe et. al. 2007; cited from earlier work
[10] = test system: Wild-type L. major promastigotes; experiment: Leishmania major luciferase assay, wild type promastigotes; settings: read-out: Wild-type L. major promastigotes EC50
Experimental: Promastigote forms of L. major strain Friedlin clone V1 expressing firefly luciferase were grown in M199 medium supplemented with hemin and 10% fetal bovine serum (FBS) inactivated at 56° C. for 30 minutes and treated with 50 ng/mL streptothricin neosulfate for maintenance of LUC gene.
as §2

[11] = test system: E. faecalis OG1RF; experiment: Liquid-based C. elegans infection model, survival; format: in vivo, Enterococcus faecalis; settings: C. elegans
[12] = test system: E. faecalis V583; experiment: Liquid-based C. elegans infection model, survival
[13] = test system: E. faecalis OG1RF; experiment: Assay of E. faecalis inhibition (MIC) in BHI culture; settings: Enterococcus faecalis, read-out: Minimum Inhibitory Concentration MIC30 OG1RF
[14] = test system: E. faecalis V583; experiment: as above
[15] = test system: M. bovis BCG; format: cell-based, Mycobacterium bovis; settings: for CFU from cellular lysates (intracellular M. bovis BCG): 7 d p.i., RIF 5.0 μg/mL, INH 0.1 μg/mL
[16] = molecular target: MtMetAP1a (Mycobacterium tuberculosis, UniProt P9WK21); experiment: MetAP enzyme inhibition IC50 (Met-Pro-pNA coupled assay); format: biochemical
Sequence of MtMetAP1a (P9WK21 whole entry): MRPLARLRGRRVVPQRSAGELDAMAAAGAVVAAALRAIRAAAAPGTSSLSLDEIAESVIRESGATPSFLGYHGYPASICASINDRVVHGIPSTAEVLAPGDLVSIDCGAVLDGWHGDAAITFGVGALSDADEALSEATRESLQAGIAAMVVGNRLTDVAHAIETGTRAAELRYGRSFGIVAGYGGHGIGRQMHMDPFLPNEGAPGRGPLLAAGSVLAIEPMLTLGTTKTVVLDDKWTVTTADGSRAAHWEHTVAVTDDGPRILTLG

[17] = molecular target: MtMetAP1c (Mycobacterium tuberculosis, UniProt P9WK19); experiment: as above; format: biochemical
Sequence of MtMetAP1c (P9WK19 whole entry): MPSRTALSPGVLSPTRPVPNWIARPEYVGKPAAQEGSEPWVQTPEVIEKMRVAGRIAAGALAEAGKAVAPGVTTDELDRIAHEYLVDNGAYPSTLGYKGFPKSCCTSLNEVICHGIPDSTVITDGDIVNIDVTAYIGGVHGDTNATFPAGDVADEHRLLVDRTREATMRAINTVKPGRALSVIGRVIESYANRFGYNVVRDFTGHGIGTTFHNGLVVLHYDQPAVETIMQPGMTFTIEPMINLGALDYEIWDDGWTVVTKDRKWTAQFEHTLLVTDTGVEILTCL
Experimental: A primary high throughput screen was conducted using MAP-C2 microplate processor (Titertek Instruments, Inc., Huntsville, Ala. USA). A library of 175,000 compounds at 30 μM were assayed in a 384 well plates using a dipeptide chromogenic substrate, methionine-proline coupled to p-Nitroaniline (Met-Pro-pNA). Each compound was dissolved in DMSO and stored at −20° C. until use. The total reaction volume was 50 μL, and each reaction contained 40 mM HEPES buffer (pH 7.5), 100 mM NaCl, […], 0.1 U/mL ProAP, 1.5 mM CoCl2, […] (Met-Pro-pNA), and 252 nM MtMetAP1c. The enzyme was pre-incubated with compounds for 20 minutes at room temperature followed by addition of […]. The reaction was then incubated at room temperature for 30 min and monitored at 405 nm on a spectrophotometer.
as §1

[18] = test system: C. elegans; experiment: Toxicity in non-infected C. elegans; settings: 10 μg/mL

## CC(=O)Oc1c(Cl)cc(Cl)c2cccnc12
[1]
  IC50: 14.6 µM

## O=C(N/N=C/c1c(O)ccc2ccccc12)c1ccncc1 [Compound 1, 2-hydroxy-1-naphthylaldehyde isonicotinoyl hydrazone]
[2]
  IC50: 315 µM
[3]
  IC50: 146 µM
[4]
  inhibition of HIV-1 p24 antigen production: inhibited the production of HIV-1 p24 antigen in a dose response manner
  inhibitory concentration equivalent to negative control (blank): 274.0 nM
[5]
  MIC: < 10 µg/mL
[6]; XTT
  concentration that perturbed the growth of aged non-growing Mtb bacilli: 1.82 µg/mL
[7]
  EC50: > 10 µM
[8]; read-out: MetAP IC50 LmMetAP1
  IC50: 10 to 100 µM
[9]
  IC50: 2 µM
[10]
  EC50: 0.64 µM

## Oc1ccccc1/C=N/Nc1ncnc2sc3c(c12)CCCC3 [Compound 2, 2-{(E)-[2-(5,6,7,8-tetrahydro[1]benzothieno[2,3-d]pyrimidin-4-yl)hydrazinylidene]methyl}phenol]
[4]
  inhibition of HIV-1 p24 antigen production: inhibited p24 antigen productions in a dose dependent manner
  inhibitory concentration equivalent to negative control (blank): 234.0 nM
[5]
  MIC: < 10 µg/mL
[7]
  EC50: 9 µM
[8]
  IC50: > 2.5 µM
[10]
  EC50: 0.375 µM

## Cc1nc(-c2ccccn2)nc(N(C)Cc2ccccc2)c1Cl [Compound 3, N-benzyl-5-chloro-N,6-dimethyl-2-(pyridin-2-yl)pyrimidin-4-amine]
[4]
  inhibition of HIV-1 p24 antigen production: inhibited p24 antigen productions in a dose dependent manner
[5]
  MIC: < 5 µg/mL
[7]
  EC50: 5 µM
[8]
  IC50: > 1 µM
[10]
  EC50: 0.243 µM

## Clc1cc2c(c3ncccc13)OCN(C1CCCCC1)C2 [Compound 8, 6-chloro-3-cyclohexyl-3,4-dihydro-2H-[1,3]oxazino[5,6-h]quinolin]
[4]
  IC50: > 3.75 µM
[1]
  IC50: 5.24 µM
[11]
  MPC (Minimum Protective Concentration) OG1RF: 4e-11 µg/mL
  MmaxPC (Maximum Protective Concentration) OG1RF: 4e-08 µg/mL
[12]
  MPC (Minimum Protective Concentration) V583: 4e-11 µg/mL
[13]
  MIC: 5 to 10 µg/mL (≈ 16.5 to 33 µM)
[14]
  Minimum Inhibitory Concentration MIC30 V583: 0.50 to 1.50 µg/mL
[14]; Enterococcus faecalis, V583, read-out: Minimum Inhibitory Concentration MIC30 V583
  MIC: 0.5 to 1.5 µg/mL (≈ 1.65 to 4.95 µM)

## NNC(=O)c1ccncc1 [Isoniazid, reference compound]
[4]
  IC50: > 2 µM
[15]
  CFU from cellular lysates (intracellular M. bovis BCG): dramatically reduced CFU

## CO[C@H]1/C=C/O[C@@]2(C)Oc3c(C)c(O)c4c(O)c(c(/C=N/N5CCN(C)CC5)c(O)c4c3C2=O)NC(=O)/C(C)=C\C=C\[C@H](C)[C@H](O)[C@@H](C)[C@@H](O)[C@@H](C)[C@H](OC(C)=O)[C@@H]1C [RIF, Rifampicin]
[15]
  CFU from cellular lysates (intracellular M. bovis BCG): dramatically reduced CFU
[15]; macrophages, 7 days
  intracellular BCG by flow cytometry: Reduction

## O=C(N/N=C/c1c(O)ccc2ccccc12)c1ccncc1 [drawing 22]
[16]
  IC50: 4.9 µM
[17]
  IC50: 5.3 µM
[2]
  IC50: 315 µM
[3]
  IC50: 146 µM
[5]
  Minimum Inhibitory Concentration Wild-type M. tuberculosis Strain CDC1551: <10.0 µg/mL

## Oc1ccccc1/C=N/Nc1ncnc2sc3c(c12)CCCC3 [drawing 23]
[16]
  IC50: < 30 µM
[17]
  IC50: < 30 µM
[5]
  Minimum Inhibitory Concentration Wild-type M. tuberculosis Strain CDC1551: <10.0 µg/mL

## Cc1nc(-c2ccccn2)nc(N(C)Cc2ccccc2)c1Cl [drawing 24]
[5]
  Minimum Inhibitory Concentration Wild-type M. tuberculosis Strain CDC1551: <5.0 µg/mL

## O=C(N/N=C/c1c(O)ccc2ccccc12)c1ccncc1 [drawing 25]
[6]
  MIC: 6.25 µM (≈ 1.82 µg/mL)

## Oc1ccccc1/C=N/Nc1ncnc2sc3c(c12)CCCC3 [drawing 26]
[6]
  MIC: 25 µM (≈ 8.11 µg/mL)

## Oc1c(Br)cc(Cl)c2cccnc12 [drawing 36]
[1]
  IC50: 12 µM

## Oc1c(I)cc(Cl)c2cccnc12 [drawing 38]
[1]
  IC50: 18.4 µM

## CN(C)[C@@H]1C(O)=C(C(N)=O)C(=O)[C@@]2(O)C(O)=C3C(=O)c4c(O)cccc4[C@@](C)(O)[C@H]3C[C@@H]12 [tetracycline]
[18]
  survival of non-infected animals: did not decrease survival
